Data from patent US7541358B2, “1-aryl-or 1-alkylsulfonylbenzazole derivatives as 5-hydroxytryptamine-6 ligands” (Wyeth, priority 2001, dated 2009).

Legend:
[1] = biological target: T1, human cloned 5-HT6 receptors (Homo sapiens, UniProt P50406); experiment: 5-HT6 binding affinity ([3H]-LSD displacement, membranes of Hela cells expressing human cloned 5-HT6 receptors); details: [3H]-LSD 3.0 nM, Hela cell membranes; for Ki: 120 min at room temperature; for % inhibition at 1 μM concentration / inhibition at 1 µM: 1 μM test compound; for inhibition at 1 µM: read-out: % inhibition at 1 μM concentration
T1 construct: expressed in transfected cells; host or cells: Hela cells
T1 sequence (P50406 whole entry): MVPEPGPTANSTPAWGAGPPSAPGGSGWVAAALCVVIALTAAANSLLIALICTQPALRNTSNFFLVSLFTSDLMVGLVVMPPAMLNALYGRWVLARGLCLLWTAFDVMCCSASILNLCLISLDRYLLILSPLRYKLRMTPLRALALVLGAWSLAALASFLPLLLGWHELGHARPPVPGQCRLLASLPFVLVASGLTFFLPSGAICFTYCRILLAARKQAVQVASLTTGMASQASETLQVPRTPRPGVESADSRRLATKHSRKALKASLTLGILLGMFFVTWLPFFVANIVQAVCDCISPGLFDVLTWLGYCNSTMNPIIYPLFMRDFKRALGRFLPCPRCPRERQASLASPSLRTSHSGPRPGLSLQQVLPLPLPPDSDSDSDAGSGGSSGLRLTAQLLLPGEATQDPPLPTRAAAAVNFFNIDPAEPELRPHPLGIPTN
Protocol: The affinity of test compounds for the serotonin 5-HT6 receptor is evaluated in the following manner. Cultured Hela cells expressing human cloned 5-HT6 receptors are harvested and centrifuged at low speed (1,000×g) for 10.0 min to remove the culture media. The harvested cells are suspended in half volume of fresh physiological phosphate buffered saline solution and recentrifuged at the same speed. This operation is repeated. The collected cells are then homogenized in ten volumes of 50 mM Tris.HCl (pH 7.4) and 0.5 mM EDTA. The homogenate is centrifuged at 40,000×g for 30.0 min and the precipitate is collected. The obtained pellet is resuspended in 10 volumes of Tris.HCl buffer and recentrifuged at the same speed. The final pellet is suspended in a small volume of Tris.HCl buffer and the tissue protein content is determined in aliquots of 10-25 μl volumes. Bovine Serum Albumin is used as the standard in the protein determination according to the method described in Lowry et al., J. Biol. Chem., 193:265 (1951). The volume of the suspended cell membranes is adjusted to give a tissue protein concentration of 1.0 mg/ml of suspension. The prepared membrane suspension (10 times concentrated) is aliquoted in 1.0 ml volumes and stored at −70° C. until used in subsequent binding experiments.
Binding experiments are performed in a 96 well microtiter plate format, in a total volume of 200 μl. […] The test compounds are added in 20.0 μl volume.
The reaction is allowed to proceed in the dark for 120 min at room temperature, at which time, the bound ligand-receptor complex is filtered off on a 96 well unifilter with a Packard Filtermate® 196Harvester. The bound complex caught on the filter disk is allowed to air dry and the radioactivity is measured in a Packard TopCount® equipped with six photomultiplier detectors, after the addition of 40.0 μl Microscint®-20 scintillant to each shallow well. The unifilter plate is heat-sealed and counted in a PackardTopCount® with a tritium efficiency of 31.0%.
Binding in the presence of varying concentrations of test compound is expressed as a percentage of specific binding in the absence of test compound. The results are plotted a log % bound versus log concentration of test compound. […] A linear regression line of data points is plotted, from which the IC50 value is determined and the Ki value is determined based upon the following equation: Ki=IC50/(1+L/KD) where L is the concentration of the radioactive ligand used and KD is the dissociation constant of the ligand for the receptor, both expressed in nM.

Row | Compound | melting point [°C] | Ki [1] [nM] | % inhibition at 1 μM concentration [1] [% @ 1 μM*] | inhibition at 1 µM [1] [%]
1 | Cc1c(S(=O)(=O)n2ncc3c(OCCN4CCCCC4)cccc32)sc2ccc(Cl)cc12 [Example 26, 1-[(5-chloro-3-methyl-1-benzothien-2-yl)sulfonyl]-4-[2-(piperidin-1-yl)ethoxy]-1H-indazole] | 216 to 218 | 53 |  | 
2 | Cc1c(S(=O)(=O)n2ccc3c(OCCN4CCCCC4)cccc32)sc2ccc(Cl)cc12 [Example 15, 1-[(5-chloro-3-methyl-1-benzothien-2-yl)sulfonyl]-4-[2-(piperidin-1-yl)ethoxy]-1H-indole] | 217 to 219 | 71 |  | 
3 | O=S(=O)(c1cc(Cl)c(Cl)s1)n1ncc2c(OCCN3CCCCC3)cccc21 [Example 23, 1-[(4,5-dichlorothien-2-yl)sulfonyl]-4-[2-(piperidin-1-yl)ethoxy]-1H-indazole] | 214 to 216 | 18 |  | 
4 | N,N-Bis(3-methoxybenzyl)-N-(2-{[1-(phenylsulfonyl)-1H-indol-4-yl]oxy}ethylamine [Example 7a] |  |  | 94 | 
5 | O=[N+]([O-])c1ccc(S(=O)(=O)n2ncc3c(OCCN4CCCCC4)cccc32)cc1 [Example 20, 1-[(4-nitrophenyl)sulfonyl]-4-[2-(l-piperidinyl)ethoxy]1H-indazole] |  |  | 76 | 
6 | O=S(=O)(c1c(Cl)nc2sccn12)n1ccc2cc(OCCN3CCCCC3)ccc21 [Example 13, 1-[(6-chloroimidazo[2,1-b][1,3]thiazol-5-yl)sulfonyl]-5-[2-(piperidin-1-yl)ethoxy]-1H-indole] | 60 | 22 |  | 
7 | N-(3-methoxybenzyl)-N-(2-{[1-(phenylsulfonyl)-1H-indol-4-yl]oxy}ethylamine hydrochloride [Example 7b] |  |  | 95 | 
8 | O=S(=O)(c1cccs1)n1ncc2c(OCCN3CCCCC3)cccc21 [Example 25, 4-[2-(piperidin-1-yl)ethoxy]-1-(thien-2-ylsulfonyl)-1H-indazole] | 172 to 175 | 8 |  | 
9 | O=S(=O)(c1ccc(Cl)s1)n1ccc2cc(OCCN3CCCCC3)ccc21 [Example 11, 1-[(5-chlorothien-2-yl)sulfonyl]-5-[2-(piperidin-1-yl)ethoxy]-1H-indole] | 222 to 224 |  |  | 51
10 | O=S(=O)(c1ccc(Cl)s1)n1ncc2c(OCCN3CCCCC3)cccc21 [Example 24, 1-[(5-chlorothien-2-yl)sulfonyl]-4-[2-(piperidin-1-yl)ethoxy]-1H-indazole] | 187 to 189 | 12 |  | 
11 | Cc1c(S(=O)(=O)n2ccc3cc(OCCN4CCCCC4)ccc32)sc2ccc(Cl)cc12 [Example 14, 1-[(5-chloro-3-methyl-1-benzothien-2-yl)sulfonyl]-5-[2-(piperidin-1-yl)ethoxy]-1H-indole] |  |  |  | 65
12 | O=S(=O)(c1cc(Cl)c(Cl)s1)n1ccc2cc(OCCN3CCCCC3)ccc21 [Example 12, 1-[(4,5-dichlorothien-2-yl)sulfonyl]-5-[2-(piperidin-1-yl)ethoxy]-1H-indole] | 222 to 224 |  |  | 65
13 | O=S(=O)(c1c(Cl)nc2sccn12)n1ncc2c(OCCN3CCCCC3)cccc21 [Example 22, 1-[(6-chloroimidazo[2,1-b][1,3]thiazol-5-yl)sulfonyl]-4-[2-(piperidin-1-yl)ethoxy]-1H-indazole] | 88 to 90 | 2 |  | 
